This is an account of results in patent US11603372B2, “Compounds and therapeutic uses thereof” (VioGen Biosciences, LLC, priority 2017, dated 2023).

Chain of PIKfyve (Q9Y2I7 whole entry): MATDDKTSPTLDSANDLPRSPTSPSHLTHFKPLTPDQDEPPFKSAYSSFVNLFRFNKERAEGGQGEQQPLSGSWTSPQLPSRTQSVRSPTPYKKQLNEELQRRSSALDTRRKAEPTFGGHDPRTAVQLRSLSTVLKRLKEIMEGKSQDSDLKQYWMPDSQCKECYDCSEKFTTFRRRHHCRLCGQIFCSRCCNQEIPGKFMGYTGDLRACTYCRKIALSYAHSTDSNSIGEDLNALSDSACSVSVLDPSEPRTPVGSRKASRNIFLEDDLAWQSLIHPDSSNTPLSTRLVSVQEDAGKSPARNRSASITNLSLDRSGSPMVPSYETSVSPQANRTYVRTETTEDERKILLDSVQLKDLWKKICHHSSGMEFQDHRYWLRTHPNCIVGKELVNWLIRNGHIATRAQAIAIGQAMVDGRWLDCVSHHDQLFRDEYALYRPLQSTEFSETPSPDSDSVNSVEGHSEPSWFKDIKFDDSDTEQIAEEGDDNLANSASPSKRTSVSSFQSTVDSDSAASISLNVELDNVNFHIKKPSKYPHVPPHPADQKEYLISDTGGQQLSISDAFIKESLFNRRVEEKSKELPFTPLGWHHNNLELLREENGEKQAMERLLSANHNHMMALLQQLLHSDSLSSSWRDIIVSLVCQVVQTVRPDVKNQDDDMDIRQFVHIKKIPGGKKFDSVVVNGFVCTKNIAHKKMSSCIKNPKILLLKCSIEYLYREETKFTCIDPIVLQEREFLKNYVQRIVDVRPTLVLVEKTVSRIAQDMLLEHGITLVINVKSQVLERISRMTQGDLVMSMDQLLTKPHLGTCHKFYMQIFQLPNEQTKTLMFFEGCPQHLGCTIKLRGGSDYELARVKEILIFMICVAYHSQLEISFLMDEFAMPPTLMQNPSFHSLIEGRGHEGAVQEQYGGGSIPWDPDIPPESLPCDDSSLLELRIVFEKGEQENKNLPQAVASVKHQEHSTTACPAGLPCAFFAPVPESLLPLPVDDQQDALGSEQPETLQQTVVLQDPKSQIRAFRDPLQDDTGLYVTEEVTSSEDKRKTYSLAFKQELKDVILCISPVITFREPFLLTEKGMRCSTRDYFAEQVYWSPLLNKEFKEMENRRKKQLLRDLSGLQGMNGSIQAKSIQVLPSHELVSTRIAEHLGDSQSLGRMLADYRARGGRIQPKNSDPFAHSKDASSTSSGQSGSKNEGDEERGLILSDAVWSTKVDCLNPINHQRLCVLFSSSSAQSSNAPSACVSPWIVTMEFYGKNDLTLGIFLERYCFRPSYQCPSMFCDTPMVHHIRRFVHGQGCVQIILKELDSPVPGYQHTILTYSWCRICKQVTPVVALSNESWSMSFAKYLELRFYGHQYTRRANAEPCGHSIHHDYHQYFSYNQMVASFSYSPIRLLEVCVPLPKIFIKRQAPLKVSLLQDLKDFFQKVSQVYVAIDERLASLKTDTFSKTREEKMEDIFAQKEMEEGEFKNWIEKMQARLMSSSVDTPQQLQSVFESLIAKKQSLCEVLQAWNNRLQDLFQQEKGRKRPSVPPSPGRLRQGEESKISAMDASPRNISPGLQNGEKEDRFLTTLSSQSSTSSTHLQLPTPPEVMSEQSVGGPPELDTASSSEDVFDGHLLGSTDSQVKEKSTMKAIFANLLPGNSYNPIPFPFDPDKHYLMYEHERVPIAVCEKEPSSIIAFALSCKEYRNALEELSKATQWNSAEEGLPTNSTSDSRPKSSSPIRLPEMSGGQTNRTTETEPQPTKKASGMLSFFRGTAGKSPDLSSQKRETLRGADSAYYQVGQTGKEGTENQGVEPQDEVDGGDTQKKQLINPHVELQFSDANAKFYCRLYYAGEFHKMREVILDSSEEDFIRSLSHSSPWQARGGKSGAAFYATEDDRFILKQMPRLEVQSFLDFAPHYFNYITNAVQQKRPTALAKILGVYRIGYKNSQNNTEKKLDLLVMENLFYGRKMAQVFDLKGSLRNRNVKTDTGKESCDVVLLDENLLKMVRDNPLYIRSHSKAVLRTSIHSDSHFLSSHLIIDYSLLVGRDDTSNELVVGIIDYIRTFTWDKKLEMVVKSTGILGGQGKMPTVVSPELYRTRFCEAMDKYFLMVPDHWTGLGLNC

For the assay, the target named is PIKfyve (Homo sapiens (Human), UniProt Q9Y2I7). The experiment in a line: Kinase binding assay (kinase-tagged T7 phage, affinity beads, qPCR readout), Kd determination. Particulars: 11-point 3-fold compound dilution series. As to the method:
Kinase assays. For most assays, kinase-tagged T7 phage strains were prepared in an E. coli host derived from the BL21 strain. E. coli were grown to log-phase and infected with T7 phage and incubated with shaking at 32° C. until lysis. The lysates were centrifuged and filtered to remove cell debris. The remaining kinases were produced in HEK-293 cells and subsequently tagged with DNA for qPCR detection. Streptavidin-coated magnetic beads were treated with biotinylated small molecule ligands for 30 minutes at room temperature to generate affinity resins for kinase assays. The liganded beads were blocked with excess biotin and washed with blocking buffer (SeaBlock (Pierce), 1% BSA, 0.05% Tween 20, 1 mM DTT) to remove unbound ligand and to reduce non-specific binding. Binding reactions were assembled by combining kinases, liganded affinity beads, and test compounds in 1× binding buffer (20% SeaBlock, 0.17×PBS, 0.05% Tween 20, 6 mM DTT). Test compounds were prepared as 111× stocks in 100% DMSO. Kds were determined using an 11-point 3-fold compound dilution series with three DMSO control points. All compounds for Kd measurements are distributed by acoustic transfer (non-contact dispensing) in 100% DMSO. The compounds were then diluted directly into the assays such that the final concentration of DMSO was 0.9%. All reactions performed in polypropylene 384-well plate. Each was a final volume of 0.02 ml. The assay plates were incubated at room temperature with shaking for 1 hour and the affinity beads were washed with wash buffer (1×PBS, 0.05% Tween 20). The beads were then re-suspended in elution buffer (1×PBS, 0.05% Tween 20, 0.5 μM non-biotinylated affinity ligand) and incubated at room temperature with shaking for 30 minutes. The kinase concentration in the eluates was measured by qPCR.
An 11-point 3-fold serial dilution of each test compound was prepared in 100% DMSO at 100× final test concentration and subsequently diluted to 1× in the assay (final DMSO concentration=1%). Most Kds were determined using a compound top concentration=30,000 nM. If the initial Kd determined was <0.5 nM (the lowest concentration tested), the measurement was repeated with a serial dilution starting at a lower top concentration.
A general note: In qPCR the cycle at which signal appears reflects the starting amount.
For `Cc1cccc(/C=N/Nc2nc(N3CCOCC3)c3sc(C(=O)NC4COC4)cc3n2)c1` [Example 7, 4-morpholino-2-[(2E)-2-(m-tolylmethylene)hydrazino]-N-(oxetan-3-yl)thieno[3,2-d]pyrimidine-6-carboxamide], the dissociation constant Kd – broadly, the equilibrium constant for the complex coming apart – was not above 1 nM.

Take `Cc1cccc(CCNc2nc(N3CCOCC3)c3sc(-c4ccncc4)cc3n2)c1` [Example 255, 4-morpholino-N-[2-(m-tolyl)ethyl]-6-(4-pyridyl)thieno[3,2-d]pyrimidin-2-amine]: the Kd was in the range of 10 to 60 nM.

Take `Cc1cccc(/C=N/Nc2nc(N3CCOCC3)c3sc(-c4ccccc4)cc3n2)c1` [Example 1, 4-morpholino-N-[(E)-m-tolylmethyleneamino]-6-phenyl-thieno[3,2-d]pyrimidin-2-amine]: the Kd lay within 1 to 10 nM.

The molecule `Cc1cccc(/C=N/Nc2nc(N3CCOCC3)c3sc(-c4c(C)noc4C)cc3n2)c1` [Example 264, 6-(3,5-dimethylisoxazol-4-yl)-4-morpholino-N-[(E)-m-tolylmethyleneamino]thieno[3,2-d]pyrimidin-2-amine] registered a Kd not above 1 nM.

`Cc1cccc(/C=N/Nc2nc(N3CCOCC3)c3cc(-c4cnco4)sc3n2)c1` [Example 12, 4-morpholino-N-[(E)-m-tolylmethyleneamino]-6-oxazol-5-yl-thieno[2,3-d]pyrimidin-2-amine] registered a Kd not above 1 nM.

Take `Cc1cccc(/C=N/Nc2nc(N3CCOCC3)c3sc(-c4ccncc4)cc3n2)c1` [Example 2, 4-morpholino-N-[(E)-m-tolylmethyleneamino]-6-(4-pyridyl)thieno[3,2-d]pyrimidin-2-amine]: the Kd was not above 1 nM.

Turning to `Cc1cccc(/C=N/Nc2nc(N3CCOCC3)c3sc(-c4cccnc4)cc3n2)c1` [Example 261, 4-morpholino-N-[(E)-m-tolylmethyleneamino]-6-(3-pyridyl)thieno[3,2-d]pyrimidin-2-amine], the Kd was not above 1 nM.

For the molecule `Cc1cccc(/C=N/Nc2nc(N3CCOCC3)c3sc(C(=O)NC4CNC4)cc3n2)c1` [Example 22, N-(azetidin-3-yl)-4-morpholino-2-[(2E)-2-(m-tolylmethylene)hydrazino]thieno[3,2-d]pyrimidine-6-carboxamide], the Kd lay within 1 to 10 nM.

The molecule `Cc1cccc(/C=N/Nc2nc(N3CCOCC3)c3sc(-c4cnn(C)c4)cc3n2)c1` [Example 262, 6-(1-methylpyrazol-4-yl)-4-morpholino-N-[(E)-m-tolylmethyleneamino]thieno[3,2-d]pyrimidin-2-amine] gave a Kd not above 1 nM.

In turn, `Cc1cccc(/C=N/Nc2nc(N3CCOCC3)c3sccc3n2)c1` [Example 3, 4-morpholino-N-[(E)-m-tolylmethyleneamino]thieno[3,2-d]pyrimidin-2-amine] had a Kd of 1 to 10 nM.

Consider `Cc1cccc(/C=N/Nc2nc(N3CCOCC3)c3sc(C(=O)Nc4cccnc4)cc3n2)c1` [Example 4, 4-morpholino-2-[(2E)-2-(m-tolylmethylene)hydrazino]-N-(3-pyridyl)thieno[3,2-d]pyrimidine-6-carboxamide], for which the Kd is not above 1 nM.

`Cc1cccc(/C=N/Nc2nc(N3CCOCC3)c3sc(-c4c(C)n[nH]c4C)cc3n2)c1` [Example 263, 6-(3,5-dimethyl-1H-pyrazol-4-yl)-4-morpholino-N-[(E)-m-tolylmethyleneamino]thieno[3,2-d]pyrimidin-2-amine] came in with a Kd not above 1 nM.

In turn, `Cc1cccc(/C=N/Nc2nc(N3CCOCC3)c3sc(-c4cnco4)cc3n2)c1` [Example 9, 4-Morpholino-N-[(E)-m-tolylmethyleneamino]-6-oxazol-5-yl-thieno[3,2-d]pyrimidin-2-amine] registered an equilibrium dissociation constant (Kd) of 1 to 10 nM.

Molecule `Cc1cccc(/C=N/Nc2nc(N3CCOCC3)c3cc(-c4c(C)noc4C)sc3n2)c1` [Example 267, 6-(3,5-dimethylisoxazol-4-yl)-4-morpholino-N-[(E)-m-tolylmethyleneamino]thieno[2,3-d]pyrimidin-2-amine] returned an equilibrium dissociation constant (Kd) of 1 to 10 nM.

For the molecule `Cc1cccc(/C=N/Nc2nc(N3CCOCC3)c3ccsc3n2)c1` [Example 10, 4-morpholino-N-[(E)-m-tolylmethyleneamino]thieno[2,3-d]pyrimidin-2-amine], the equilibrium dissociation constant (Kd) fell in the range of 10 to 60 nM.

As to `Cc1cccc(/C=N/Nc2nc(N3CCOCC3)c3sc(C(=O)Nc4ccncc4)cc3n2)c1` [Example 5, 4-morpholino-2-[(2E)-2-(m-tolylmethylene)hydrazino]-N-(4-pyridyl)thieno[3,2-d]pyrimidine-6-carboxamide], the Kd was in the range of 1 to 10 nM.

Regarding `Cc1cccc(/C=N/Nc2nc(N3CCOCC3)c3cc(-c4c(C)n[nH]c4C)sc3n2)c1` [Example 268, 6-(3,5-dimethyl-1H-pyrazol-4-yl)-4-morpholino-N-[(E)-m-tolylmethyleneamino]thieno[2,3-d]pyrimidin-2-amine], the Kd is 1 to 10 nM.

As to `Cc1cccc(/C=N/Nc2nc(N3CCOCC3)c3cc(-c4ccncc4)sc3n2)c1` [Example 11, 4-morpholino-N-[(E)-m-tolylmethyleneamino]-6-(4-pyridyl)thieno[2,3-d]pyrimidin-2-amine], the equilibrium dissociation constant (Kd) was 1 to 10 nM.

On to `Clc1cccc(/C=N/Nc2nc(N3CCOCC3)c3cc(-c4cnco4)sc3n2)c1` [Example 14, N-[(E)-(3-chlorophenyl)methyleneamino]-4-morpholino-6-oxazol-5-yl-thieno[2,3-d]pyrimidin-2-amine], for which the Kd was in the range of 10 to 60 nM.
